Measured values published in patent EP1038880B1, “Androstanes and pregnanes for allosteric modulation of GABA receptor” (priority 1994, dated 1995).

Legend:
Rats = assay: Vogel test; format: in vivo; details: i.c.v., g-CD
Source text: The Vogel test is based on the development of a conflict between a highly motivated behavior and an aversion. For this test, the strong motivation is thirst. The animal is water deprived for 12-16 hrs to produce the motivation to drink. During the training period the animals are exposed to the testing environment so they become accustomed to the drinking spout and minimize the fear of a novel environment. Following training, the animals are allowed access to water for 2 hrs. During this time, the animals will drink and eat their normal amount of water and food, compensating for the deprivation time. However, this schedule still produces a strong motivation to drink during the testing period.
Having been deprived of water for twelve to sixteen hours, an animal is placed in a test cage where it is allowed to drink freely for five minutes. This period is used to habituate the animal to the environment and the drinking spout. Following the training period, animals have access to water and food in their home cage for 2 hrs. Food is available at all times. Twenty-four hours later, drug is administered to the animal intracecebroventricularly.
After an indicated delay started from the time of injection the animal is again placed in the test cage for ten minutes. A computer counts each time the animal licks, and after every twentieth lick administers a mild electric stimulus across the tongue and/or feet. The electrical stimulus consists of a 0.6 mA current with a duration of 100 msec. This procedure produces a state of conflict for the animal that is reduced by the administration of clinically used anxiolytic agents (i.e., Valium). For dose-response curves, separate groups of animals are injected with increasing doses of test drug and are tested at a predetermined time.
Table 10. Anxiolytic Activity in Vogel Test in Rats

Sprague-Dawley rats = assay: Geller-Seifter conflict test; format: in vivo; details: IP, 50% hpbcd
Source text: This animal model of human anxiety utilizes a conditioned state of conflict in rats to ascertain the anxiolytic properties of drugs. […] The first includes bar pressing under a variable […] schedule without punishment. The second component is a fixed ratio schedule with each bar press resulting in a positive reinforcement and a punishment. The punished component produces a state of conflict within the animal. […] An anxiolytic response would increase the punished responding without affecting the unpunished responding.
Rats were housed individually under a 12-hour light-dark cycle with lights on from 0700-1900.
Rats were trained in test chambers (Coulbourn instruments) with a lever mounted in one wall, a small dipper that delivered the 0.1-mL milk reward (1 part Eagle condensed : milk 2 parts water), and a metal grid floor through which the foot-shock punishment was administered. A DEC PDP 11/73 minicomputer nmning SKED (State Systems) was used for programming and recording.
Rates initially learned to respond on a continuous reinforcement schedule and progressed rapidly to 30-sec, 1-min, and 2-min variable interval (VI) schedules. On the continuous reinforcement schedule, rats received milk reward following every lever press; on the VI schedules, milk rewards were available at infrequent and variable intervals, eventually at an average of once every 2 min. […] During conflict periods, which were signalled by the presentation of a light and a tone, the continuous reinforcement schedule was again in force and each lever press delivered both a milk reward and a brief ([…]) foot-shock Shock intensity was 0.2 mA initially, and.was increased daily in increments of 0.02 mA in order to gradually suppress lever pressing to 5 responses or less per conflict period. […] Drug-induced increases in the rate of punished responses were taken as an index of antianxiety activity, while decreases in the rate of unpunished responses were taken as an index of response depression or sedation.

GR complex = assay: [35S]TBPS binding assay (inhibition of [35S]TBPS binding, cerebral cortex P2 homogenate); design: species or system rat; details: for modulation of [35S]TBPS binding, in words: even at very high concentrations (Figure 6)
Method in brief: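 Rat (male Sprague-Dawley) cortical P2 homogenate (0.5 mg protein) in 50 mM Na/K phosphate pH 7.4, 200 mM NaCl, incubated with 2 nM [35S]TBPS plus steroid test compounds (DMSO) in presence of GABA plus (+)bicuculline, 25°C, 90 min. Filtration, scintillation counting; nonspecific binding defined with […].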

[1] = target: T1, Hippocampal Mineralocorticoid Receptors (Rattus norvegicus, UniProt P22199); assay: Inhibition of 3H-aldosterone binding, brain cytosol; design: species or system rats; details: competitor 10^-6M; 3 nM 3H-aldosterone, RU28362 0.5 µM
T1 construct: To isolate the mineralocorticoid receptor, brain cytosol fractions were prepared; from tissue; host or cells: rat brain (hippocampal) cytosol
T1 sequence (P22199 1-981): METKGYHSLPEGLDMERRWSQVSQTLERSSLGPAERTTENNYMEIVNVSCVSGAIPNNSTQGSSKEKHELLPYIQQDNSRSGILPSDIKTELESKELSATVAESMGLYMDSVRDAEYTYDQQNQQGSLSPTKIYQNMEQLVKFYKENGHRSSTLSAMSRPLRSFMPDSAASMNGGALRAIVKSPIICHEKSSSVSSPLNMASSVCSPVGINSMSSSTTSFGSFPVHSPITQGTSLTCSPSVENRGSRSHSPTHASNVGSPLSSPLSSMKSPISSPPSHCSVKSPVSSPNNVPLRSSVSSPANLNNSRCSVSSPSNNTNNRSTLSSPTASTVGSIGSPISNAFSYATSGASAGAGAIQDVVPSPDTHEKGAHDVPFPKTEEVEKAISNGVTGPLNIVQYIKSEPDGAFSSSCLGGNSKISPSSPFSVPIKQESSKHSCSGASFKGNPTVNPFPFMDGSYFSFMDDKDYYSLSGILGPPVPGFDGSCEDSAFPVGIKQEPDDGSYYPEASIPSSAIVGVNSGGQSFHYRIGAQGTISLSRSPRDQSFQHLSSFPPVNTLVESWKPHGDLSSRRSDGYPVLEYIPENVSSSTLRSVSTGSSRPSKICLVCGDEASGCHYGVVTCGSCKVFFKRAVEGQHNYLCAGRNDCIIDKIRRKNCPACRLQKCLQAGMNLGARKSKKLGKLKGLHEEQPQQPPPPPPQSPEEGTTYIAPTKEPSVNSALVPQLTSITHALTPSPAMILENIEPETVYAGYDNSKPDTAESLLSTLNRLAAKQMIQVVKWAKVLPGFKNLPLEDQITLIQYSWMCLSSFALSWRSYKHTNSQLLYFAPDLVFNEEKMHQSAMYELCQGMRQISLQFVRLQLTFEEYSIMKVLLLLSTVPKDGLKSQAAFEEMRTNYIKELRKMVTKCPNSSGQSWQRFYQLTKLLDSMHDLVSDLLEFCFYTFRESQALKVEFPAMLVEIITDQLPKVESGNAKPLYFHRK
Procedure: Various hormonal activities of representative neuroactive steroids were further studied through testing their potential estrogenic, mineralocorticoid and glucocorticoid activities. These activities were analyzed by monitoring the ability of the compounds to inhibit binding of the steroid hormones to their respective hormone receptors.
In Table 3, rats were adrenalectomized 3 days prior to sacrifice. […] Table 2. Inhibition of 3H-Progesterone Binding to the Bovine Uteral Progesterone Receptors
Table 3. Inhibition of 3H-Aldosterone Binding to Hippocampal Mineralocorticoid Receptors

[2] = tested on: Bovine Uteral Progesterone Receptors; assay: Inhibition of 3H-progesterone binding, uterus cytosol; details: competitor 10^-6M; 3H-progesterone 0.15 nM
Procedure: The data presented were obtained by performing assays in accordance with the procedures described in et al. 1988 previously to determine the effect of progesterone metabolites and their derivatives and the progestin R5020 on the binding of [^3H]R5020 to the progesterone receptor in rat uterus (Gee et al. 1988).
^3H-progesterone (0.15 nM) was incubated with the rat uterus cytosol in the presence of the test compounds. The specific binding were determined after incubation and compared to the control incubation without the compounds. The data are expressed as percent inhibition of binding.
In Table 3, rats were adrenalectomized 3 days prior to sacrifice. To isolate the mineralocorticoid receptor, brain cytosol fractions were prepared as describe in Gee, et al. 1988. The drugs were incubated with 3 nM of ^3H-aldosterone (the specific ligand for the mineralocorticoid receptor) in the presence of the selective type II agonist RU28362 (0.5 µM) which blocks ^3H-aldosterone binding to the type II (glucocorticoid) receptors. Table 2. Inhibition of 3H-Progesterone Binding to the Bovine Uteral Progesterone Receptors

[3] = tested on: metrazol induced convulsions; assay: animal or person; format: in vivo, mice; details: Mus musculus; PO, 40 mg/kg, water; read-out: % Protected
Procedure: Experiments were also performed to determine the physiological relevance of neuroactive steroid and GABA receptor interactions by assessing the ability of the compounds of and used in the invention to prevent metrazol induced convulsions in mice. Mice were injected with various doses of the test compounds of the invention, 10 minutes prior to the injection of metrazol. The time to onset of myoclomis (presence of forelimb clonic activity) induced by metrazol was determined by observing each mouse for a period of 30 minutes. […] Table 6: Antimetrazol Activity of Neuroactive Steroids in Mice
The anticonvulsant tests are similar to that described above. […] The number of animals with tonic and/or clonic convulsions was recorded. In the maximal electroshock test, 50 mA of current at 60 Hz was delivered through corneal electrodes for 200 msec to induce tonic seizure. The ability of compounds to abolish the tonic component was defined as the endpoint. General CNS depression potential was determined by a rotorod test 10 minutes after the injection of compounds where the number of mice staying on a rotating (6 rpm) rod for 1 minute in one of the three trials was determined. […] Table 7. Anticonvulsant Activity of Exemplified Neuroactive Steroids and those of Selected Clinically Useful Anticonvulsants in Mice

[4] = tested on: N.I.H. Swiss-Webster mice; assay: Elevated plus-maze; format: in vivo; details: Mus musculus, ip, read-out: % Control
Source text: The theoretical basis for the elevated plus-maze test is similar to that of the light/dark transition test. […] The apparatus consists of two open-arms and two enclosed-arms. The elevated plus-maze test allows for two measures of anxiety, the number of entries into the open-arms and the time spent on the open-arms, both expressed as a percentage of the total number of entries and time spent in/on both the open-arms and enclosed-arms.
Male N.LH. Swiss-Webster mice (Harlan, Indianapolis, IN) weighing 15-20 g were housed four per cage in polyethylene cages with sawdust bedding. The colony mom was environmentally controlled (22°C) with a 12^- hr light/dark cycle (0600-1800 hr). Food and water were available ad libitum, except during testing. The experiments were run from 0700-1500 hr and groups were counterbalance for time of day effects. Mice were only administered drug or vehicle once.
The apparatus included two open arms perpendicular to two enclosed arms elevated 50 cm from the floor. Each arm was 50 cm long and the walls of the enclosed arms were 40 cm tall. The maze was made completely of black plexiglass. Incandescent 200 W light bulbs were above each of the open arms to produce a strong contrast between the open arms and the enclosed arms.
Ten minutes after an injection, the N.I.H. Swiss-Webster mice were placed in the center of the plus-maze facing an open arm. During the 5 min test period, the number of entries onto the open arms and the enclosed arms, and the time spent in the open arms and enclosed arms were measured. All four paws had to be within an arm for the dependent variable to be measured. Therefore, the time spent in the center of the maze is not counted, so the total time spent in the open arms and the enclosed arms may not equal 5 min.

For `CC(O)C1CCC2C3CCC4CC(O)C(F)CC4(C)C3CCC12C` (stereo not drawn) [2β-Fluoro-3α,20α-dihydroxy-5α-pregnane], which “Vogel (%of control)” value (Rats; 20 µg/kg) is on record?
The value was 264.9 %of control.

Which “Vogel (%of control)” value (Rats; 10 µg/kg) does the source give for `C[C@H](O)[C@H]1CC[C@H]2[C@@H]3CC[C@H]4C[C@H](O)CC[C@]4(C)[C@H]3CC[C@]12C` [3α,20α(S)-Dihydroxy-5α-pregnane] here?
The value was 193.0 %of control.

`CC(C)OC1CC2(C)C(CCC3C2CCC2(C)C(C(C)O)CCC32)CC1O` (stereo not drawn) [3α,20α-Dihydroxy-2β-isopropoxy-5α-pregnane] was tested. Which “Vogel (%of control)” value (Rats; 10 µg/kg) did it give?
The value was 169.0 %of control.

`CCC[C@H](O)[C@H]1CC[C@H]2[C@@H]3CC[C@H]4C[C@H](O)CC[C@]4(C)[C@H]3CC[C@]12C` [3α,20α-Dihydroxy-21-ethyl-5α-pregnane] was tested. Which “Vogel (%of control)” value (Rats; 20 µg/kg) did it give?
The value was 225.8 %of control.

Which “Vogel (%of control)” value (Rats; 10 µg/kg) does the source give for `CC[C@H](O)[C@H]1CC[C@H]2[C@@H]3CC[C@H]4C[C@H](O)CC[C@]4(C)[C@H]3CC[C@]12C` [3α,20α-Dihydroxy-21-methyl-5α-pregnane] here?
Its value is 157.9 %of control.

How did the “Geller/ Seifter (% of control)” value (Sprague-Dawley rats; 10 mg/kg) turn out when `COC[C@@]1(O)CC[C@@]2(C)[C@@H](CC[C@@H]3[C@@H]2CC[C@]2(C)[C@@H](C(C)=O)CC[C@@H]32)C1` [3α-Hydroxy-3β-methoxymethyl-5α-pregnan-20-one] was run?
Its value is 958 % of control.

How did the “Geller/ Seifter (% of control)” value (Sprague-Dawley rats; 40 mg/kg) turn out when `CCOC[C@@]1(O)CC[C@@]2(C)[C@@H](CC[C@@H]3[C@@H]2CC[C@]2(C)[C@@H](C(C)=O)CC[C@@H]32)C1` [3α-hydroxy-3β-ethoxymethyl-5α-pregnan-20-one] was run?
Its value is 3743 % of control.

What does the source list for `C[C@H](O)[C@H]1CC[C@H]2[C@@H]3CC[C@H]4C[C@H](O)CC[C@]4(C)[C@H]3CC[C@]12C` [5α-pregnan-3α,20α-diol, reference compound]?
modulation of [35S]TBPS binding, in words (GR complex): partially modulate; inhibition at 1 µM [1]: 0%; Vogel (%of control) (Rats; 10 µg/kg): 283.3 %of control; Vogel (%of control) (Rats; 20 µg/kg): 267.3 %of control

Which “modulation of [35S]TBPS binding, in words” value (GR complex) does the source give for `C[C@H](O)[C@H]1CC[C@H]2[C@@H]3CC[C@@H]4C[C@H](O)CC[C@]4(C)[C@H]3CC[C@]12C` [5β-pregnan-3α,20α-diol] here?
Its value is “partially modulate”.

What about the “% of Inhibition” value [2] of the same compound?
The value was 0%.

And the inhibition at 1 µM [1]?
Its inhibition at 1 µM is 0%.

`C[C@]12CCC(=O)C=C1CC[C@@H]1[C@@H]2[C@@H](O)C[C@]2(C=O)[C@@H](C(=O)CO)CC[C@@H]12` [Aldosterone] was tested. Which inhibition at 1 µM [1] did it give?
The inhibition at 1 µM was 95.5%.

`CCC(=O)[C@@]1(C)CC[C@H]2[C@@H]3CCC4=CC(=O)CCC4=C3CC[C@@]21C` [Example R5020, promegesterone] was tested. Which “% of Inhibition” value [2] did it give?
Its value is 100%.

With `C[C@]12CC[C@](O)(C#CCCO)C[C@H]1CC[C@@H]1[C@@H]2CC[C@]2(C)[C@@H](C(=O)CSS(=O)(=O)O)CC[C@@H]12` [sodium S-[3α-hydroxy-3β-(4'-hydroxybutynyl)-5β-pregnan-20-on-21-yl] thiosulfate] as the compound, how does the IC50 (GR complex; 2 nM [35S]TBPS, rat cerebral cortex P2 homogenate) read?
Its IC50 is 107 nM.

What about the IMAX (GR complex; maximum inhibition of [35S]TBPS binding) of the same compound?
Its IMAX is 97%.

And the responders at 40 mg/kg [3]?
The responders at 40 mg/kg was 33.3%.

And the response vs control in vivo at 10 mg/kg [4]?
The response vs control in vivo at 10 mg/kg was 135%.
